Literature values as cited in PubChem BioAssay AID1259409 (Chemical Carcinogenesis Research Information System (CCRIS), 2018).

System: rodent chemically induced tumor inhibition, incidence and multiplicity
Assay: CCRIS tumor inhibitor studies
Details: Route [Inhibitor]: ORAL, Species: RAT, Promoter: NONE USED

In the case of CC1=C(/C=C/C(C)=C/C=C/C(C)=C/C=C2C(=O)CC(C)(C)CC2=O)C(C)(C)CCC1, the “tumour outcome (control, treated, inhibition, significance)” value (Carcinogen: L-AZASERINE, 115-02-6, Dose [Inhibitor]: 1 MMOL/KG DIET DAILY FOR 365 D STARTING 1 WK AFTER COMPLETION OF CARCINOGEN TREATMENT (STUDY DURATION: 66 WK), Strain/Sex: WISTAR-LEWIS/FEMALE, Target Tissue: Type of Lesion: PANCREAS: ADENOMA, Dose [Carcinogen]: 10 MG/KG BW 1/WK FOR 15 WK) is listed as 50%, 33%, 34%, not significant, the “tumour outcome (control, treated, inhibition, significance)” value (Carcinogen: L-AZASERINE, 115-02-6, Dose [Inhibitor]: 1 MMOL/KG DIET DAILY FOR 365 D STARTING 1 WK AFTER COMPLETION OF CARCINOGEN TREATMENT (STUDY DURATION: 66 WK), Strain/Sex: WISTAR-LEWIS/FEMALE, Target Tissue: Type of Lesion: PANCREAS: CARCINOMA IN SITU, Dose [Carcinogen]: 10 MG/KG BW 1/WK FOR 15 WK) is listed as 8%, 21%, -163%, not calculated and the “tumour outcome (control, treated, inhibition, significance)” value (Carcinogen: L-AZASERINE, 115-02-6, Dose [Inhibitor]: 1 MMOL/KG DIET DAILY FOR 365 D STARTING 1 WK AFTER COMPLETION OF CARCINOGEN TREATMENT (STUDY DURATION: 66 WK), Strain/Sex: WISTAR-LEWIS/FEMALE, Target Tissue: Type of Lesion: PANCREAS: CARCINOMA, Dose [Carcinogen]: 10 MG/KG BW 1/WK FOR 15 WK) is listed as 13%, 4%, 69%, not significant. The “tumour outcome (control, treated, inhibition, significance)” value (Carcinogen: L-AZASERINE, 115-02-6, Dose [Inhibitor]: 1 MMOL/KG DIET DAILY FOR 365 D STARTING 1 WK AFTER COMPLETION OF CARCINOGEN TREATMENT (STUDY DURATION: 66 WK), Strain/Sex: WISTAR-LEWIS/FEMALE, Target Tissue: Type of Lesion: PANCREAS: NEOPLASM, Dose [Carcinogen]: 10 MG/KG BW 1/WK FOR 15 WK) was 71%, 58%, 18%, not significant, the “tumour outcome (control, treated, inhibition, significance)” value (Carcinogen: L-AZASERINE, 115-02-6, Dose [Inhibitor]: 1 MMOL/KG DIET DAILY FOR 365 D STARTING 1 WK AFTER COMPLETION OF CARCINOGEN TREATMENT (STUDY DURATION: 66 WK), Strain/Sex: WISTAR-LEWIS/MALE, Target Tissue: Type of Lesion: PANCREAS: ADENOMA, Dose [Carcinogen]: 10 MG/KG BW 1/WK FOR 15 WK) was 25%, 12%, 52%, not significant and the “tumour outcome (control, treated, inhibition, significance)” value (Carcinogen: L-AZASERINE, 115-02-6, Dose [Inhibitor]: 1 MMOL/KG DIET DAILY FOR 365 D STARTING 1 WK AFTER COMPLETION OF CARCINOGEN TREATMENT (STUDY DURATION: 66 WK), Strain/Sex: WISTAR-LEWIS/MALE, Target Tissue: Type of Lesion: PANCREAS: CARCINOMA IN SITU, Dose [Carcinogen]: 10 MG/KG BW 1/WK FOR 15 WK) was 29%, 56%, -93%, not significant. The “tumour outcome (control, treated, inhibition, significance)” value (Carcinogen: L-AZASERINE, 115-02-6, Dose [Inhibitor]: 1 MMOL/KG DIET DAILY FOR 365 D STARTING 1 WK AFTER COMPLETION OF CARCINOGEN TREATMENT (STUDY DURATION: 66 WK), Strain/Sex: WISTAR-LEWIS/MALE, Target Tissue: Type of Lesion: PANCREAS: CARCINOMA, Dose [Carcinogen]: 10 MG/KG BW 1/WK FOR 15 WK) was 46%, 16%, 65%, p<0.05, the “tumour outcome (control, treated, inhibition, significance)” value (Carcinogen: L-AZASERINE, 115-02-6, Dose [Inhibitor]: 1 MMOL/KG DIET DAILY FOR 365 D STARTING 1 WK AFTER COMPLETION OF CARCINOGEN TREATMENT (STUDY DURATION: 66 WK), Strain/Sex: WISTAR-LEWIS/MALE, Target Tissue: Type of Lesion: PANCREAS: NEOPLASM, Dose [Carcinogen]: 10 MG/KG BW 1/WK FOR 15 WK) was 100%, 84%, 16%, not significant and the “tumour outcome (control, treated, inhibition, significance)” value (Carcinogen: L-AZASERINE, 115-02-6, Dose [Inhibitor]: 2 MMOL/KG DIET DAILY FOR 330 D STARTING 1 WK AFTER COMPLETION OF CARCINOGEN TREATMENT (STUDY DURATION: 66 WK), Strain/Sex: WISTAR-LEWIS/FEMALE, Target Tissue: Type of Lesion: PANCREAS: ADENOMA, Dose [Carcinogen]: 10 MG/KG BW 1/WK FOR 15 WK) was 50%, 33%, 34%, not significant. The “tumour outcome (control, treated, inhibition, significance)” value (Carcinogen: L-AZASERINE, 115-02-6, Dose [Inhibitor]: 2 MMOL/KG DIET DAILY FOR 330 D STARTING 1 WK AFTER COMPLETION OF CARCINOGEN TREATMENT (STUDY DURATION: 66 WK), Strain/Sex: WISTAR-LEWIS/FEMALE, Target Tissue: Type of Lesion: PANCREAS: CARCINOMA IN SITU, Dose [Carcinogen]: 10 MG/KG BW 1/WK FOR 15 WK) was 8%, 17%, -113%, not calculated, the “tumour outcome (control, treated, inhibition, significance)” value (Carcinogen: L-AZASERINE, 115-02-6, Dose [Inhibitor]: 2 MMOL/KG DIET DAILY FOR 330 D STARTING 1 WK AFTER COMPLETION OF CARCINOGEN TREATMENT (STUDY DURATION: 66 WK), Strain/Sex: WISTAR-LEWIS/FEMALE, Target Tissue: Type of Lesion: PANCREAS: CARCINOMA, Dose [Carcinogen]: 10 MG/KG BW 1/WK FOR 15 WK) was 13%, 0%, 100%, not significant and the “tumour outcome (control, treated, inhibition, significance)” value (Carcinogen: L-AZASERINE, 115-02-6, Dose [Inhibitor]: 2 MMOL/KG DIET DAILY FOR 330 D STARTING 1 WK AFTER COMPLETION OF CARCINOGEN TREATMENT (STUDY DURATION: 66 WK), Strain/Sex: WISTAR-LEWIS/FEMALE, Target Tissue: Type of Lesion: PANCREAS: NEOPLASM, Dose [Carcinogen]: 10 MG/KG BW 1/WK FOR 15 WK) was 71%, 50%, 30%, p 0.14. For the same compound, the “tumour outcome (control, treated, inhibition, significance)” value (Carcinogen: L-AZASERINE, 115-02-6, Dose [Inhibitor]: 2 MMOL/KG DIET DAILY FOR 330 D STARTING 1 WK AFTER COMPLETION OF CARCINOGEN TREATMENT (STUDY DURATION: 66 WK), Strain/Sex: WISTAR-LEWIS/MALE, Target Tissue: Type of Lesion: PANCREAS: ADENOMA, Dose [Carcinogen]: 10 MG/KG BW 1/WK FOR 15 WK) was 25%, 40%, -60%, not significant, the “tumour outcome (control, treated, inhibition, significance)” value (Carcinogen: L-AZASERINE, 115-02-6, Dose [Inhibitor]: 2 MMOL/KG DIET DAILY FOR 330 D STARTING 1 WK AFTER COMPLETION OF CARCINOGEN TREATMENT (STUDY DURATION: 66 WK), Strain/Sex: WISTAR-LEWIS/MALE, Target Tissue: Type of Lesion: PANCREAS: CARCINOMA IN SITU, Dose [Carcinogen]: 10 MG/KG BW 1/WK FOR 15 WK) was 29%, 44%, -52%, not significant and the “tumour outcome (control, treated, inhibition, significance)” value (Carcinogen: L-AZASERINE, 115-02-6, Dose [Inhibitor]: 2 MMOL/KG DIET DAILY FOR 330 D STARTING 1 WK AFTER COMPLETION OF CARCINOGEN TREATMENT (STUDY DURATION: 66 WK), Strain/Sex: WISTAR-LEWIS/MALE, Target Tissue: Type of Lesion: PANCREAS: CARCINOMA, Dose [Carcinogen]: 10 MG/KG BW 1/WK FOR 15 WK) was 46%, 0%, 100%, p<0.05. For the same compound, the “tumour outcome (control, treated, inhibition, significance)” value (Carcinogen: L-AZASERINE, 115-02-6, Dose [Inhibitor]: 2 MMOL/KG DIET DAILY FOR 330 D STARTING 1 WK AFTER COMPLETION OF CARCINOGEN TREATMENT (STUDY DURATION: 66 WK), Strain/Sex: WISTAR-LEWIS/MALE, Target Tissue: Type of Lesion: PANCREAS: NEOPLASM, Dose [Carcinogen]: 10 MG/KG BW 1/WK FOR 15 WK) was 100%, 84%, 16%, not significant, the “tumour outcome (control, treated, inhibition, significance)” value (Carcinogen: N-METHYL-N-NITROSOUREA, 684-93-5, Dose [Inhibitor]: 406 MG/KG DIET DAILY FOR 24 WK STARTING 5 D AFTER LAST CARCINOGEN DOSE (STUDY DURATION: 32 WK), Strain/Sex: F344/MALE, Target Tissue: Type of Lesion: COLON: SARCOMA, Dose [Carcinogen]: 0.5 MG 2/WK FOR 8 WK) was 5/40 (13%), 3/40 (8%), 38%, not calculated and the “tumour outcome (control, treated, inhibition, significance)” value (Carcinogen: N-METHYL-N-NITROSOUREA, 684-93-5, Dose [Inhibitor]: 406 MG/KG DIET DAILY FOR 24 WK STARTING 5 D AFTER LAST CARCINOGEN DOSE (STUDY DURATION: 32 WK), Strain/Sex: F344/MALE, Target Tissue: Type of Lesion: COLON: TUMOR, Dose [Carcinogen]: 0.5 MG 2/WK FOR 8 WK) was 60%, 75%, -25%, not significant. The “tumour outcome (control, treated, inhibition, significance)” value (Carcinogen: N-METHYL-N-NITROSOUREA, 684-93-5, Dose [Inhibitor]: 406 MG/KG DIET DAILY FOR 38 WK STARTING 5 D AFTER LAST CARCINOGEN DOSE (STUDY DURATION: 44 WK), Strain/Sex: F344/MALE, Target Tissue: Type of Lesion: COLON: TUMOR, Dose [Carcinogen]: 0.5 MG 2/WK FOR 6 WK) was 62%, 49%, 21%, not significant and the “tumour outcome (control, treated, inhibition, significance)” value (Carcinogen: N-METHYL-N-NITROSOUREA, 684-93-5, Dose [Inhibitor]: 406 MG/KG DIET DAILY FOR 48 WK STARTING 5 D AFTER LAST CARCINOGEN DOSE (STUDY DURATION: 52 WK), Strain/Sex: F344/MALE, Target Tissue: Type of Lesion: COLON: TUMOR, Dose [Carcinogen]: 0.5 MG 2/WK FOR 4 WK) was 31%, 35%, -13%, not significant.
